Data: patent US10842785B2, “PIM kinase inhibitors in combination with RNA splicing modulators/inhibitors for treatment of cancers” (UNIVERSITY OF MARYLAND, BALTIMORE COUNTY, priority 2016, dated 2020)
“Also recorded” adds a separate entry of the source.

Assays:
Assay type in all cases: cell-based
[1] = test system: MOLM16 cells; test: MTT assay (number of live cells), MOLM16 cells, single inhibitors and combination, Compusyn CI; details: 48 hours
Procedure: (§1) General experimental procedure: 10,000 (MOLM16) or 20,000 (EOL1) cells were seeded per well in 96-well plates. After culturing overnight, AZD1208 and/or Pladienolide B/SRPIN340 were added to wells in quadruplicates at 5 different concentrations. Different ratios between AZD1208 and Pladienolide B were tried in MOLM16 and EOL1 cells. At 48 hours the MTT metabolism indicative of number of live cells was measured by MTT assay (Promega, Cat: G4000). The resulting values were used to evaluate the Fa (fraction affected) values, which were plugged into the Compusyn software to calculate the combination indices (CI values) at ED50, ED75, ED90 and ED95 (ED—Effective dose of combination).
These values of drug dose and effect (fraction of cells affected by the treatment—FA values) were input into the Compusyn software to estimate the interaction between the two drugs.

[2] = test system: EOL1 cells; test: MTT assay (number of live cells), EOL1 cells, single inhibitors and combination, Compusyn CI; details: for Effect (fraction of cells affected, FA): 48 hours
Procedure: as §1
To further confirm the finding in MOLM16 cells, it was tested whether the combination of AZD1208 and Pladienolide B is synergistic in another AML cell line—EOL1. Different ratios between AZD1208 and Pladienolide B were tested to identify the ideal ratio that provides maximum synergy.

[3] = test system: MCL1 splice variants; test: Taqman qRT-PCR for MCL1 splice variants in MOLM16 cells; details: MOLM16, 20 μM, 24 hours
Text: Control=DMSO treated. […] Arrow indicate bands that change after AZD1208 treatment.
A few targets from the microarray data were chosen, that being, ones that were affected by PIM kinase inhibition. The procedure was manual curation of data, followed by reference seq analysis of splice variants to determine avalibilty of sequence information. Initially, changes in splice variants of a known apoptotic regulator, MCL1 were validated. The smaller isoform of MCL1 is pro-apototic, while the longer isoform has anti-apototic functions.

[4] = test system: SR protein phosphorylation; test: Western blot using phospho-SR protein antibody; details: MOLM16 and EOL1 cells, versus DMSO treated controls
Procedure: MOLM16 and EOL1 cells were treated with AZD1208 or SRPIN340 for indicated concentration and time. Cells lysates from treated cells were used for western blot analysis.
Phosphorylation of splicing factors is known to play a role in regulation of splicing. Phosphorylation of splicing factors called serine arginine rich proteins (SR proteins) is known to regulate their function and localization. Serine arginine rich protein kinases (SRPK1 and SRPK2) phosphorylate these proteins and inhibition of SRPK activity using the small molecule modulator SRPIN340 leads to reduction in phosphorylation. The level of SR protein phosphorylation can be visualized using phospho-SR protein antibody. It was investigated to determine if PIM kinases regulate SRPK activity to indirectly lead to changes in splicing. […] Thus, it was concluded that the SRPK activity was not affected by PIM kinase inhibition.

## CCC(O)C(C)C1OC1CC(C)/C=C/C=C(\C)C1OC(=O)CC(O)CCC(C)(O)C(OC(C)=O)/C=C/C1C (stereo not drawn) [Pladienolide B, pladienolide B]
[1]; MOLM16, Trial 1, 0.002 μM
  Effect (fraction of cells affected, FA): 0.517
[1]; MOLM16, Trial 1, 0.004 μM
  Effect (fraction of cells affected, FA): 0.599
[1]; MOLM16, Trial 1, 0.006 μM
  Effect (fraction of cells affected, FA): 0.711
[1]; MOLM16, Trial 1, 0.008 μM
  Effect (fraction of cells affected, FA): 0.726
[1]; MOLM16, Trial 1, 0.01 μM
  Effect (fraction of cells affected, FA): 0.757
[1]; MOLM16, Trial 2, 0.002 μM
  Effect (fraction of cells affected, FA): 0.487
[1]; MOLM16, Trial 2, 0.004 μM
  Effect (fraction of cells affected, FA): 0.676
[1]; MOLM16, Trial 2, 0.006 μM
  Effect (fraction of cells affected, FA): 0.752
[1]; MOLM16, Trial 2, 0.008 μM
  Effect (fraction of cells affected, FA): 0.821
[1]; MOLM16, Trial 2, 0.01 μM
  Effect (fraction of cells affected, FA): 0.862
[1]; MOLM16, Trial 3, 0.002 μM
  Effect (fraction of cells affected, FA): 0.393
[1]; MOLM16, Trial 3, 0.004 μM
  Effect (fraction of cells affected, FA): 0.607
[1]; MOLM16, Trial 3, 0.006 μM
  Effect (fraction of cells affected, FA): 0.696
[1]; MOLM16, Trial 3, 0.008 μM
  Effect (fraction of cells affected, FA): 0.749
[1]; MOLM16, Trial 3, 0.01 μM
  Effect (fraction of cells affected, FA): 0.814
[2]; EOL1, Trial 1
  relative sensitivity of the cells to the two drugs: more sensitive to Pladienolide B than AZD1208
[2]; EOL1, Trial 1, 0.001 μM
  Effect (fraction of cells affected, FA): 0.315
[2]; EOL1, Trial 1, 0.002 μM
  Effect (fraction of cells affected, FA): 0.633
[2]; EOL1, Trial 1, 0.003 μM
  Effect (fraction of cells affected, FA): 0.890
[2]; EOL1, Trial 1, 0.004 μM
  Effect (fraction of cells affected, FA): 0.957
[2]; EOL1, Trial 1, 0.005 μM
  Effect (fraction of cells affected, FA): 0.982
[2]; EOL1, Trial 2, 0.0005 μM
  Effect (fraction of cells affected, FA): 0.060
[2]; EOL1, Trial 2, 0.001 μM
  Effect (fraction of cells affected, FA): 0.351
[2]; EOL1, Trial 2, 0.0015 μM
  Effect (fraction of cells affected, FA): 0.528
[2]; EOL1, Trial 2, 0.002 μM
  Effect (fraction of cells affected, FA): 0.706
[2]; EOL1, Trial 2, 0.0025 μM
  Effect (fraction of cells affected, FA): 0.820
[2]; EOL1, Trial 3, 0.0005 μM
  Effect (fraction of cells affected, FA): 0.095
[2]; EOL1, Trial 3, 0.001 μM
  Effect (fraction of cells affected, FA): 0.360
[2]; EOL1, Trial 3, 0.0015 μM
  Effect (fraction of cells affected, FA): 0.542
[2]; EOL1, Trial 3, 0.002 μM
  Effect (fraction of cells affected, FA): 0.667
[2]; EOL1, Trial 3, 0.0025 μM
  Effect (fraction of cells affected, FA): 0.814

## O=C(Nc1cc(C(F)(F)F)ccc1N1CCCCC1)c1ccncc1 [SRPIN340, N-[2-(1-Piperidinyl)-5-(trifluoromethyl)phenyl]-4-pyridinecarboxamide]
[1]; MOLM16, SRPIN340 testing Trial 1, 5 μM
  Effect (fraction of cells affected, FA): 0.004
[1]; MOLM16, SRPIN340 testing Trial 1, 10 μM
  Effect (fraction of cells affected, FA): 0.014
[1]; MOLM16, SRPIN340 testing Trial 1, 20 μM
  Effect (fraction of cells affected, FA): 0.385
[3]
  changes in MCL1 splicing: Changes in MCL1 splicing were not observed
[4]
  SR protein phosphorylation: reduction in phosphorylation signal; also recorded: phosphorylation of SR proteins changes
